# In patent US12616674B2, “Anti-fibrotic NEU3 inhibitor compounds and methods of use” (The Texas A&M University System, priority 2019, dated 2026):
# Entries after “also recorded” stand apart in the source; their conditions may differ.
# What was measured:
# [1] = target: T1, recombinant human sialidase NEU3 (Homo sapiens, UniProt Q9UQ49); experiment: NEU3-catalyzed L-TGF-β1 activation (TGF-β1 release/concentration assay, active TGF-β1 ELISA); assay type: biochemical; conditions: recombinant human NEU3, L-TGF-β1, PBS pH 6.9, 2 hours 37° C.; read-out: IC50, inhibits human NEU3 in the TGF-β1 concentration (release) assay
# T1 construct: purchased Origene TP316537
# T1 sequence (Q9UQ49 1-428): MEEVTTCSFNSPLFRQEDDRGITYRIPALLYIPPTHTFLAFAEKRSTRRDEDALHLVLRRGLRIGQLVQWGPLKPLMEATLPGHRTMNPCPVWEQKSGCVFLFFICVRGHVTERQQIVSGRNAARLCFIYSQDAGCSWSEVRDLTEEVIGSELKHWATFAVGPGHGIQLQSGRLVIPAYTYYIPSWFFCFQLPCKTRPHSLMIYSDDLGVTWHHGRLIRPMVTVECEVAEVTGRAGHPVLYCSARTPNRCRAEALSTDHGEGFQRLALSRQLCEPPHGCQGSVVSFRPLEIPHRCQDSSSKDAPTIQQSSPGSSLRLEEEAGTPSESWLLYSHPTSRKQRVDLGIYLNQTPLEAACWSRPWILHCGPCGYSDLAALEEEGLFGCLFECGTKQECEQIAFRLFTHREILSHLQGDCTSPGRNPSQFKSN
# Description: To determine if NEU3 can cause latent transforming growth factor-β1 (L-TGF-β1) to release active TGF-β1, 200 ng/ml recombinant human L-TGF-β1 (299-LT/CF, R&D Systems) was incubated with varying concentrations of recombinant human NEU3 (TP316537, Origene) in a total volume of 100 μl of PBS pH 6.9 in a 96-well microplate (651261, Greiner Bio-one, Monroe, NC). The microplates were covered with aluminum foil and incubated at 37° C. for 2 hours. Following incubation, the reaction mixtures were assayed using a TGF-β1 ELISA kit (DY240, R&D Systems) following the manufacturer's protocol with the exception that the reaction mixtures were not processed for acid treatment, so as to measure only active TGF-β1 and not total TGF-β1. The absorbance was read with a SynergyMX plate reader (BioTek, Winooski, VT).
# To determine the ability of compounds 1-31 to inhibit human recombinant NEU3 in-vitro, compounds were dissolved in 5 ml water to 20 mM in 15 ml tubes (89039-664, VWR, Radnor, PA), with the exception that 4-hydroxypyridine-2-carboxylic acid, nicotinic acid, and 4-aminopicolinic acid were dissolved in 50 μl DMSO to 2 M, and this was then added to 4.95 ml of water to make a 20 mM stock, and O-(tetrahydro-2H-pyran-2yl) hydroxylamine and salicylic acid were dissolved in 50 μl methanol to 2 M, and this was then added to 4.95 ml of water to make a 20 mM stock. All stocks were stored at 4° C. and used within 2 weeks of preparation. A 10-fold dilution series of the compounds starting at 2 mM were made in PBS pH 6.9 in 1.7 ml clear microtubes (22-281, Genesee Scientific). 100 μl of diluted compound was added to the well of a 96 well plate and then 50 μl of 400 ng/ml recombinant human sialidase NEU3 (TP316537, Origene) in PBS pH 6.9 was added to each well (50 μl PBS pH 6.9 for the control), and the plate was incubated for 30 minutes at 37° C. 50 μl of 800 ng/ml L-TGF-β1 (299-LT/CF, R&D Systems) in PBS pH 6.9 was then added to the well. The plate was covered with aluminum foil and incubated for 2 hours at 37° C., and released active TGF-β1 was assayed as described above.
# [2] = system: NEU3 enzymic activity, hepatic steatosis and weight gain in mice; conditions: oral administration; cited from earlier work
# [3] = system: C57BL/6 mice on regular or high fat diet; experiment: High fat diet C57BL/6 mice treated with intraperitoneal DANA; assay type: in vivo, mouse
# Description: 12 week old male C57BL/6 mice (#000664; Jackson Laboratory, Farmington, CT) were fed standard rodent chow (15% kcal fat, Teklad 8604, Envigo, Madison WI) and 12-16 week old male C57BL/6 mice (#380050; Jackson) were fed a high fat diet (60% kcal fat, D12492 formula; Research Diets New Brunswick, NJ). Mice were placed on the specified diets for 6 weeks before the start of treatment. To determine if the sialidase inhibitor DANA (#252926-10MG, Millipore-Sigma, Burlington, MA) decreases high-fat diet induced weight gain, mice were treated every 48 hours with intraperitoneal injections of phosphate-buffered saline (PBS) or DANA at 10 mg/kg in PBS, formulated as 4 mg/ml in PBS. Mice were maintained on their specific diets and received injections every 48 hours for 5 weeks (35 days). Animals were housed with a 12-hour/12-hour light-dark cycle (lights on at 7 AM) with free access to food and water. All injections were performed between 9:00 and 11:00 AM. This protocol was done with specific approval of the Texas A&M University institutional animal care and use committee.
# To determine the amount of steatosis (accumulation of fat in the cells of the liver), frozen sections were prepared by placing freshly isolated pieces of liver in Surgipath frozen section compound, freezing on dry ice, and storing at −80° C. 10-12 μm cryosections of liver were placed on glass slides and were stained with oil red O to detect the accumulation of lipids as described in Mehlem, A., et al., Imaging of neutral lipids by oil red O for analyzing the metabolic status in health and disease, Nat. Protoc., 2013. 8(6): p. 1149-54.
# As in Example 9, mice were maintained on their specific diets and received injections of buffer or DANA every 48 hours for 5 weeks (35 days). Following euthanasia, liver tissue was removed, fixed, and then sectioned as described above.
# This situation leads to elevated levels of glucose in the blood system, and following an increase in blood glucose (such as after a meal or an injection of glucose), the body takes longer than normal to reduce blood glucose levels. To determine if DANA could reduce blood glucose levels, on day 33 of the experiment described in […], mice were fasted for 16 hours starting at 5 PM. On day 34, mice received an IP injection of 1.5 g/kg glucose (Amresco, Solon, OH) formulated as 525 mg/ml in PBS. Blood glucose levels were measured before glucose administration (0 minutes), and at 20, 40, 60, 90, and 120 minutes after the injection using commercial blood glucose test strips (CVS Pharmacy, Woonsocket, RI).
# Obesity is associated with increased size (weight) of many organs, including white fat and liver. To determine if the sialidase inhibitor DANA could prevent a high fat diet-induced increase in organ weights, at day 35 of the experiment described in Example 9, following euthanasia, organs including epididymal white adipose and inter-scapular brown adipose tissue, liver, spleen, lungs, and kidneys were weighed.
# [4] = HFD mice, DANA vs control HFD, day 35, FIG. 19
compound,measurement,setting,value
"CC(=O)N[C@@H]1C(O)C=C(C(=O)O)O[C@H]1[C@H](O)[C@H](O)CO (stereo partly shown) [Compound 1, DANA]",IC50,[1],250 µM
same,HFD-induced weight gain,[2],attenuated
same,NEU3 enzymic activity in the small intestine,[2],inhibited
same,hepatic steatosis,[2],attenuated
same,oil red O staining in the liver (neutral lipid accumulation),"[3]; HFD mice, DANA 10 mg/kg i.p. every 48 hours for 35 days, vs saline, FIG. 14",significant reduction
same,F4/80 positive cells in the liver,"[3]; HFD mice, DANA i.p. every 48 hours for 35 days, vs saline, FIG. 15",significant reduction
same,high fat diet induced weight gain,"[3]; HFD mice, DANA i.p. injections vs PBS, after 21 days of treatment, FIG. 16",prevents weight gain; also recorded: significant reduction in weight gain
same,total glucose levels (AUC over 120 minutes),"[3]; HFD mice, DANA vs HFD control, FIG. 18",significantly lower
same,blood glucose levels after glucose injection,"[3]; HFD mice, DANA vs control HFD, at 60 minutes after 1.5 g/kg IP glucose, FIG. 17",significantly lower
same,brown fat weight (percent of body weight),[3]; [4],significantly lower
same,white fat weight (percent of body weight),[3]; [4],significantly lower
same,weight of mice on regular chow,"[3]; regular chow mice, DANA vs PBS injections",no effect; also recorded: no significant differences in weight
same,organ weights,"[3]; regular chow mice, DANA vs PBS, day 35, FIG. 19",no significant differences in any organ weights
same,oil red O staining in the liver,"[3]; regular diet mice, DANA 10 mg/kg i.p. every 48 hours for 35 days, vs saline",no significant difference
same,F4/80 staining in the liver,"[3]; regular diet mice, DANA i.p. every 48 hours for 35 days, vs saline",no significant difference
same,fasting glucose levels or glucose levels after the glucose injection,"[3]; standard chow mice, DANA vs PBS, FIG. 17",no significant differences
